Laboratory results reported in patent US20100119595A1, “Monounsaturated fatty acids and perhydrocyclopentanophenanthrene nucleus combination molecules, and their precursors, and the use of all of these as weight-loss agents” (priority 2001, published 2010).

What was measured:
[1] = Dog weight-loss study, 2 hydroxyestrone oleate vs oleoyl-estrone (Example 10); assay type: in vivo; details: oral 21 days, 5, 3.33 or 2.5 micromoles/kg vs OE 10 micromoles/kg
Excerpt: Dogs are selected and initial measurements taken. The initial measurements include weight and electrical impedance for each dog as measured by a standard impedance measuring device with electrodes placed between the front and rear paws. The dogs are placed individually in appropriate cages and allowed an ad libitum diet of standard dog chow and water for a 10-day period. Daily measurements include the following: • 1. Weight • 2. Weight of food consumed • 3. Water consumed, both volume and weight
Every other day, the dogs' electrical impedance is measured as an indicator of fat tissue content and loss. The dogs remain confined with out of cage activity or exercise for the duration of the experiment. This initial 10-day period establishes a pattern and average of weight gain, impedance change, and food and water consumption for each dog. […] This assures the dogs will readily accept the bread ball as a drug delivery device. […]
An appropriate volume of either OE or 2HOE is placed into the center of a thick piece of dense sweet bread (non-porous), carefully rolled into a small ball so none of the compound leaks out, and sprinkled on the outer surface with sugar or syrup as determined above. […] Electrical impedance of each dog is measured every other day.

[2] = Rabbit study at mole/kg dose equivalent to that used for oleoyl-estrone in rats; assay type: in vivo, rabbits
Excerpt: The eicosenoic acid-estrogen monoesters mimic the function of the naturally occurring fatty acid monoester, estrone monooleate, as a signal that informs the brain of the size of fat tissue mass. When administered to rabbits, they produce weight reduction of about 20%, by a) decreasing food intake and b) by a new and unexpected mechanism. Eicosenoic acid-estrogen monoesters are useful for the treatment of obesity and/or overweight in mammals, with the advantages of high efficacy and low toxicity.

[3] = Dog weight-loss study, estrone eicosenoate vs oleoyl-estrone (Example 2); assay type: in vivo; details: oral 21 days, 5, 3.33 or 2.5 micromoles/kg vs OE 10 micromoles/kg
Excerpt: Dogs are selected and initial measurements taken. The initial measurements include weight and electrical impedance for each dog as measured by a standard impedance measuring device with electrodes placed between the front and rear paws. The dogs are placed individually in appropriate cages and allowed an ad libitum diet of standard dog chow and water for a 10-day period. Daily measurements include the following: • 1. Weight • 2. Weight of food consumed • 3. Water consumed, both volume and weight Every other day, the dogs' electrical impedance is measured as an indicator of fat tissue content and loss. The dogs remain confined with out of cage activity or exercise for the duration of the experiment. This initial 10-day period establishes a pattern and average of weight gain, impedance change, and food and water consumption for each dog. […] This assures the dogs will readily accept the bread ball as a drug delivery device. […] An appropriate volume of either OE or EE is placed into the center of a thick piece of dense sweet bread (non-porous), carefully rolled into a small ball so none of the to compound leaks out, and sprinkled on the outer surface with sugar or syrup as determined above. […] Electrical impedance of each dog is measured every other day.

| Structure (SMILES) | weight loss compared with dogs receiving oleoyl-estrone [1] | greater reduction in appetite in rabbits than oleoyl-estrone did in rats [2] | greater weight loss in rabbits than oleoyl-estrone did in rats [2] | weight loss compared with dogs receiving oleoyl-estrone [3] |
| --- | --- | --- | --- | --- |
| CCCCCCCC/C=C\CCCCCCCC(=O)Oc1cc2c(cc1O)[C@H]1CC[C@]3(C)C(=O)CC[C@H]3[C@@H]1CC2 [2HOE, 2 hydroxyestrone oleate] | greater weight loss | – | – | – |
| CCCCCCCC/C=C\CCCCCCCCCC(=O)Oc1ccc2c(c1)CC[C@@H]1[C@@H]2CC[C@]2(C)C(=O)CC[C@@H]12 [EE, estrone eicosenoate] | – | 50% | 60% | greater weight loss |
